From patent publication US8101774B2, “Ester derivatives and medicinal use thereof” (Japan Tobacco Inc., priority 2004, dated 2012)

Target: T1, Microsomal triglyceride transfer protein (MTP) from human small intestine microsome (Homo sapiens, UniProt P55157)
T1 construct: Human small intestine microsome was dialyzed against 10 mM phosphate buffer; tissue Tissue Transforming Technologies, Inc; host or cells: human small intestine microsome
Assay: Inhibition test of interliposomal triglyceride (TG) transfer activity by MTP
Assay type: biochemical
Conditions: purified MTP from human small intestine microsome, 37° C., 1.5 hours
Method: Microsomal triglyceride transfer protein (MTP) from human small intestine microsome (manufactured by Tissue Transforming Technologies, Inc.) was purified in such a way described below. Human small intestine microsome was dialyzed against 10 mM phosphate buffer (300 mL, pH 6.8) twice for about 2 hours and once for further not less than 12 hours, at about 4° C. After dialysis, the mixture was centrifuged at 4° C. and 15,000×g for 5 minutes and then the supernatant was recovered. The previously recovered supernatant was purified by column chromatography on diethylaminoethyl (DEAE) Sepharose using FPLC (Fast Performance Liquid Chromatography) system, and the purified MTP was used for the test as described below.
Small unilamellar-vesicle (SUV) liposome (hereinafter described as donor, containing 0.25% (mol/mol) triolein and 5% (mol/mol) cardiolipin) constituted by triolein labeled with ^14C and non-labeled SUV liposome (hereinafter described as acceptor, containing […] triolein) were prepared in such a way described below.
Firstly, in order to prepare the donor, there were volatilized under a stream of nitrogen gas a phosphatidylcholine solution containing phosphatidylcholine labeled with ^3H, a cardiolipin solution, and a triolein solution containing triolein labeled with ^14C (each solution had been already dissolved in an appropriate organic solvent), or in order to prepare the acceptor, there were volatilized under nitrogen flow a phosphatidylcholine solution containing phosphatidylcholine labeled with ^3H and a cardiolipin solution (each solution had been already dissolved in an appropriate organic solvent). An appropriate amount of a reaction buffer (15 mM Tris-HCl buffer containing 1 mM EDTA.Na2, 40 mM NaCl, and 0.5% (w/v) bovine serum albumin, pH 7.4) was added thereto to be emulsified. The emulsions were treated with ultrasonication under ice-cooling and centrifuged at 4° C. and 159,000×g for 2 hours. Each of the resulting supernatant was used for donor or acceptor.
Each radioactivity in the acceptor and the donor was measured by liquid scintillation counter, and a mixed solution of the acceptor and the donor was prepared with a reaction buffer so as to be a donor-derived radioactivity of 16,000 dpm/400 μL and a acceptor-derived radioactivity of 4,000 dpm/[…]. 400 μL of the mixed solution of the donor and the acceptor, 45 μL of the reaction buffer, 50 μL of MTP (20 μg/mL), and 5 μL of a sample dissolved in DMSO (dimethyl sulfoxide) or 5 μL of DMSO was mixed (total amount: 500 μL). The mixture was incubated at 37° C. for 1.5 hours. After completion of the incubation, 1.25 mL of a suspension of DEAE cellulose (66.7% (v/v)) in 15 mM Tris-HCl buffer (pH 7.4) containing 1 mM EDTA.Na2 was added to the above solution. The mixture was centrifuged to separate the donor (adsorbed on the DEAE cellulose to precipitate) and the acceptor (the supernatant). The radioactivity in the acceptor was measured by liquid scintillation counter. The value obtained by subtracting the radioactivity in a blank group from the radioactivity in the acceptor of a DMSO group was determined as MTP-mediated TG transfer activity, and it was compared with the value obtained by subtracting the radioactivity in the blank group from the radioactivity in a sample group. Here, the blank was prepared by adding 10 mM phosphate buffer (pH 6.8) containing 250 mM NaCl in place of MTP. Inhibition rate (%) was calculated from values obtained according to the following equation. Inhibition rate(%)=(1 minus((radioactivity of sample group minus radioactivity of blank group)/(radioactivity of DMSO group minus radioactivity of blank group)))×100.
50% Inhibition rate (IC50) was determined on the basis of the above equation.

T1 sequence (P55157 19-894): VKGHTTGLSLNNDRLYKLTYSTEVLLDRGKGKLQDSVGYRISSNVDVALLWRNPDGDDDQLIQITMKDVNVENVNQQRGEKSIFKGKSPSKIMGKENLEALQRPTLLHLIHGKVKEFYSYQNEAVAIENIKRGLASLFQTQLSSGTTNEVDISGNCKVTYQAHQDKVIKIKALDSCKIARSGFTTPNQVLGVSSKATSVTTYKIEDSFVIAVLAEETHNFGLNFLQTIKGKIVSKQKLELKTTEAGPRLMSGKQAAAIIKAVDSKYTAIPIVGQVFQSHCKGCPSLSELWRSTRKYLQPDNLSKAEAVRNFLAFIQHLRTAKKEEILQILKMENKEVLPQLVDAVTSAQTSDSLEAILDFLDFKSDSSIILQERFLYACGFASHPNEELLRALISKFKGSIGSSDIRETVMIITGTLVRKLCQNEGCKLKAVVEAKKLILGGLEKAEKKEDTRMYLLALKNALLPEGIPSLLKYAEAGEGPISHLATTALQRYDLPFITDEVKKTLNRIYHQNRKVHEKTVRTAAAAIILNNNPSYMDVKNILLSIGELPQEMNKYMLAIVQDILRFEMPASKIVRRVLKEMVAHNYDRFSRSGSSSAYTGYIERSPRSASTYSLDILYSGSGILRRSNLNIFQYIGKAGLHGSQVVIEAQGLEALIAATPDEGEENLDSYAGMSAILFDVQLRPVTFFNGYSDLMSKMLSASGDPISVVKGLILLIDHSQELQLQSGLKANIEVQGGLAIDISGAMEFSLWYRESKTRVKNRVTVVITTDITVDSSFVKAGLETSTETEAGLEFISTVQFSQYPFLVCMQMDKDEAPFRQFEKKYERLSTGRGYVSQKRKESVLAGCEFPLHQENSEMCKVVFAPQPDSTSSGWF
T1 sequence (P07237 18-508 partner): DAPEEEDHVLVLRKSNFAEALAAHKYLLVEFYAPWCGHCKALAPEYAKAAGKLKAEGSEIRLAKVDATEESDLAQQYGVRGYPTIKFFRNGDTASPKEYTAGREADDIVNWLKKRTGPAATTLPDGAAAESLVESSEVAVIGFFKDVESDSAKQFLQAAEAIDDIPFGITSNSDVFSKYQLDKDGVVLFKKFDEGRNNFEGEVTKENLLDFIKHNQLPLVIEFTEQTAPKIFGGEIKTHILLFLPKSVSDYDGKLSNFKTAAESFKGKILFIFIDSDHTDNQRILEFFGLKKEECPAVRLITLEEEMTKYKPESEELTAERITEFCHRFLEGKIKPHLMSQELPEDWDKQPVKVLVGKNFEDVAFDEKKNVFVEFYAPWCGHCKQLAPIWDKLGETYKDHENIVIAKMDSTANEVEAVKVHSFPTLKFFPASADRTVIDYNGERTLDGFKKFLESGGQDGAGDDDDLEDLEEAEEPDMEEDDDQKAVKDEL

Row | SMILES | IC50
1 | COC(=O)c1cc(C)c(OC(=O)CCCc2ccc(NC(=O)c3ccccc3-c3ccc(C(F)(F)F)cc3)c(C(=O)N(C)C)c2)c(C)c1 [Compound 1-64, 4-[4-(3-dimethylcarbamoyl-4-{(4′-trifluoromethylbiphenyl-2-carbonyl)amino}phenyl)butyryloxy]-3,5-dimethylbenzoic acid methyl ester] | < 10 nM
2 | CN(C)C(=O)c1cc(CCCC(=O)Oc2ccc(C#N)cc2)ccc1NC(=O)c1ccccc1-c1ccc(C(F)(F)F)cc1 [Compound 1-23, 4-{3-dimethylcarbamoyl-4-[(4′-trifluoromethylbiphenyl-2-carbonyl)amino]phenyl}butyric acid 4-cyanophenyl ester] | 10 to 100 nM
3 | COC(=O)c1ccc(OC(=O)C2CCN(c3ccc(NC(=O)c4ccccc4-c4ccc(C(F)(F)F)cc4)c(C(=O)N(C)C)c3)CC2)c(F)c1 [Compound 3-2, 1-{3-dimethylcarbamoyl-4-[(4′-trifluoromethylbiphenyl-2-carbonyl)amino]phenyl}piperidine-4-carboxylic acid 2-fluoro-4-methoxycarbonylphenyl ester] | 10 to 100 nM
4 | COC(=O)c1ccc(OC(=O)CCCc2ccc(NC(=O)c3ccccc3-c3ccc(C(F)(F)F)cc3)c(C(=O)N(C)C)c2)cc1C(F)(F)F [Compound 1-21, 4-(4-{3-dimethylcarbamoyl-4-[(4′-trifluoromethylbiphenyl-2-carbonyl)amino]phenyl}butyryloxy)-2-trifluoromethylbenzoic acid methyl ester] | 10 to 100 nM
5 | COC(=O)c1cc(Cl)c(OC(=O)CCCc2ccc(NC(=O)c3ccc(C)nc3-c3ccc(C(F)(F)F)cc3)c(C(=O)N(C)C)c2)c(OC)c1 [Compound 1-36, 3-chloro-4-[4-(3-dimethylcarbamoyl-4-{[6-methyl-2-(4-trifluoromethylphenyl)pyridine-3-carbonyl]amino}phenyl)butyryloxy]-5-methoxybenzoic acid methyl ester] | < 10 nM
6 | CCOc1cc(C(=O)OC)cc(OC)c1OC(=O)CCCc1ccc(NC(=O)c2ccc(C)nc2-c2ccc(C(F)(F)F)cc2)c(C(=O)N(C)C)c1 [Compound 1-49, 4-[4-(3-dimethylcarbamoyl-4-{[6-methyl-2-(4-trifluoromethylphenyl)pyridine-3-carbonyl]amino}phenyl)butyryloxy]-3-ethoxy-5-methoxybenzoic acid methyl ester] | < 10 nM
7 | CN(C)C(=O)c1cc(CCC(=O)Oc2ccccc2)ccc1NC(=O)c1ccccc1-c1ccc(C(F)(F)F)cc1 [Compound 1-1, 3-{3-dimethylcarbamoyl-4-[(4′-trifluoromethylbiphenyl-2-carbonyl)amino]phenyl}propionic acid phenyl ester] | 10 to 100 nM
8 | COC(=O)c1cc(C)c(OC(=O)CCCc2ccc(NC(=O)c3ccccc3-c3ccc(C(F)(F)F)cc3)c(C(=O)N(C)C)c2)c(Cl)c1 [Compound 1-34, 3-chloro-4-(4-{3-dimethylcarbamoyl-4-[(4′-trifluoromethylbiphenyl-2-carbonyl)amino]phenyl}butyryloxy)-5-methylbenzoic acid methyl ester] | < 10 nM
9 | CN(C)C(=O)c1cc(CCCC(=O)Oc2ccc(C(=O)OCc3cccc(Cl)c3)cc2)ccc1NC(=O)c1ccccc1-c1ccc(C(F)(F)F)cc1 [Compound 1-87, 4-[4-(3-dimethylcarbamoyl-4-{(4′-trifluoromethylbiphenyl-2-carbonyl)amino}phenyl)butyryloxy]benzoic acid 3-chlorobenzyl ester] | < 10 nM
10 | Cc1cccc(COC(=O)c2ccc(OC(=O)CCCc3ccc(NC(=O)c4ccccc4-c4ccc(C(F)(F)F)cc4)c(C(=O)N(C)C)c3)cc2)n1 [Compound 1-101, 4-[4-(3-dimethylcarbamoyl-4-{(4′-trifluoromethylbiphenyl-2-carbonyl)amino}phenyl)butyryloxy]benzoic acid 6-methylpyridin-2-ylmethyl ester] | < 10 nM
11 | COC(=O)c1ccc(OC(=O)CCCc2ccc(NC(=O)c3ccc(C)nc3-c3ccc(C(F)(F)F)cc3)c(C(=O)N(C)C)c2)cc1 [Compound 1-13, 4-[4-(3-dimethylcarbamoyl-4-{[6-methyl-2-(4-trifluoromethylphenyl)pyridine-3-carbonyl]amino}phenyl)butyryloxy)benzoic acid methyl ester] | < 10 nM
12 | COC(=O)c1ccc(OC(=O)CCCc2ccc(NC(=O)c3ccccc3-c3ccc(C(F)(F)F)cn3)c(C(=O)N(C)C)c2)cc1 [Compound 1-19, 4-(4-{3-dimethylcarbamoyl-4-[2-(5-trifluoromethylpyridin-2-yl)benzoylamino]phenyl}butyryloxy)benzoic acid methyl ester] | 10 to 100 nM
13 | COC(=O)c1cc(C(=O)OC(C)C)cc(C)c1OC(=O)CCCc1ccc(NC(=O)c2ccc(C)nc2-c2ccc(C(F)(F)F)cc2)c(C(=O)N(C)C)c1 [Compound 1-111, 4-[4-(3-dimethylcarbamoyl-4-{[6-methyl-2-(4-trifluoromethylphenyl)pyridine-3-carbonyl]amino}phenyl)butyryloxy]-5-methylisophthalic acid 1-isopropyl ester 3-methyl ester] | < 10 nM
14 | COC(=O)c1ccc(OC(=O)CCc2ccc(NC(=O)c3ccccc3-c3ccc(C(F)(F)F)cc3)c(C(=O)N(C)C)c2)cc1 [Compound 1-27, 4-(3-{3-dimethylcarbamoyl-4-[(4′-trifluoromethylbiphenyl-2-carbonyl)amino]phenyl}propionyloxy)benzoic acid methyl ester] | 10 to 100 nM
15 | CN(C)C(=O)c1cc(CCCC(=O)Oc2ccc(C(=O)OCc3ccc(Cl)cc3)cc2)ccc1NC(=O)c1ccccc1-c1ccc(C(F)(F)F)cc1 [Compound 1-79, 4-[4-(3-dimethylcarbamoyl-4-{(4′-trifluoromethylbiphenyl-2-carbonyl)amino}phenyl)butyryloxy]benzoic acid 4-chlorobenzyl ester] | < 10 nM
16 | COC(=O)c1ccc(OC(=O)CCCc2ccc(NC(=O)c3ccccc3-c3ccc(C(F)(F)F)cc3)c(C(=O)N(C)C)c2)c(Cl)c1 [Compound 1-11, 3-chloro-4-(4-{3-dimethylcarbamoyl-4-[(4′-trifluoromethylbiphenyl-2-carbonyl)amino]phenyl}butyryloxy)benzoic acid methyl ester] | < 10 nM
17 | CCOC(=O)c1cc(OC)c(OC(=O)CCCc2ccc(NC(=O)c3ccc(C)nc3-c3ccc(C(F)(F)F)cc3)c(C(=O)N(C)C)c2)c(OC)c1 [Compound 1-43, 4-[4-(3-dimethylcarbamoyl-4-{[6-methyl-2-(4-trifluoromethylphenyl)pyridine-3-carbonyl]amino}phenyl)butyryloxy]-3,5-dimethoxybenzoic acid ethyl ester] | < 10 nM
18 | COC(=O)c1ccc(OC(=O)CCCc2ccc(NC(=O)c3ccccc3-c3ccc(C(F)(F)F)cc3)c(C(=O)N3CCOCC3)c2)cc1 [Compound 1-26, 4-(4-{3-(morpholine-4-carbonyl)-4-[(4′-trifluoromethylbiphenyl-2-carbonyl)amino]phenyl}butyryloxy)benzoic acid methyl ester] | 10 to 100 nM
19 | COC(=O)c1ccc(OC(=O)CCCc2ccc(NC(=O)c3ccccc3-c3ccc(C(=O)OC)cc3)c(C(=O)N(C)C)c2)cc1 [Compound 4-3, 2′-{2-dimethylcarbamoyl-4-[3-(4-methoxycarbonylphenoxycarbonyl)propyl]phenyl-carbamoyl}biphenyl-4-carboxylic acid methyl ester] | < 10 nM
